The source of these data is patent publication US12479840B2, “HMG-CoA reductase degradation inducing compound” (Uppthera, priority 2020, dated 2025).

In this experiment the target is T1, HMG-CoA reductase (Homo sapiens, UniProt P04035).
T1 construct: endogenous in cells; host or cells: HepG2 (Korea Cell Line Bank)
T1 sequence (P04035 1-888): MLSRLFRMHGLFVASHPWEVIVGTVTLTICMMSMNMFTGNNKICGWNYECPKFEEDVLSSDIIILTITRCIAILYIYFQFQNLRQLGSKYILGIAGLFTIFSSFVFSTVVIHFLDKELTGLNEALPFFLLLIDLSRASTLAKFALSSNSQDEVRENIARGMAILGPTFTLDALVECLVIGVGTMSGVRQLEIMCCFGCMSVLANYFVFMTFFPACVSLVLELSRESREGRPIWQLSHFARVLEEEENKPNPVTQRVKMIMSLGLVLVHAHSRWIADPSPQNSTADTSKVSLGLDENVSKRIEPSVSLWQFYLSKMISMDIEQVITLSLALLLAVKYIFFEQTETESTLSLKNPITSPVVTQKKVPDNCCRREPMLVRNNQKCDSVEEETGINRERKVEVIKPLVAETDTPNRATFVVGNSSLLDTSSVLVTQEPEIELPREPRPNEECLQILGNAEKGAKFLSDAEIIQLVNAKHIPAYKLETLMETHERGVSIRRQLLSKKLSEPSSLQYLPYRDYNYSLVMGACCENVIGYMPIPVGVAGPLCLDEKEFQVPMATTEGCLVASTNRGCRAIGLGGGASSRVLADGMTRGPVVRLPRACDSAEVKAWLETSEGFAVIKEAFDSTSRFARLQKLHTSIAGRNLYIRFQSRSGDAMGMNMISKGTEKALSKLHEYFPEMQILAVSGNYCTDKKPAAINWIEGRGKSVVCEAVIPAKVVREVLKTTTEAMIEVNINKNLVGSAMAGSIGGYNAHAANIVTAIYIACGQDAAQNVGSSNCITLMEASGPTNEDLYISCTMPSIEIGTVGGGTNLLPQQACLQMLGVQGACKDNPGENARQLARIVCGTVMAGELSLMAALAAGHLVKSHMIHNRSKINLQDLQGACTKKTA
Briefly: HMG-CoA reductase (HMGCR) degradation in HepG2 cells by western blotting. Type of experiment: cell-based. To be noted: treated for 18 hours, ratio of HMG-CoA reductase to GAPDH, read-out: DC50. The essentials: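 Western blot read-out: HMGCR protein probed (1:500, 16 hours at 4° C) alongside GAPDH loading control on 15 μg BCA-normalised RIPA lysates. Lysates came from HepG2 cells (P105–P110) exposed for 18 hours to a 10-point, three-fold series starting at 3 μM.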
`C[C@H]1C=C2C=C[C@H](C)[C@H](CC[C@@H]3C[C@@H](O[Si](C)(C)C(C)(C)C)CC(=O)O3)[C@H]2[C@@H](OC(=O)NCCOCCCOCCNc2cccc3c2C(=O)N(C2CCC(=O)NC2=O)C3=O)C1` (stereo partly drawn) [Compound 90, (1S,3R,7S,8S,8aR)-8-(2-((2R,4R)-4-((tert-butyldimethylsilyl)oxy)-6-oxotetrahydro-2H-pyran-2-yl)ethyl)-3,7-dimethyl-1,2,3,7,8,8a-hexahydronaphthalen-1-yl (2-(3-(2-((2-(2,6-dioxopiperidin-3-yl)-1,3-dioxoisoindolin-4-yl)amino)ethoxy)propoxy)ethyl)carbamate]: the DC50 was less than 50 nM.

Consider `C[C@H]1C=C2C=C[C@H](C)[C@H](CC[C@@H]3C[C@@H](O)CC(=O)O3)[C@H]2[C@@H](OC(=O)NCCOCCCOCCNc2cccc3c2C(=O)N(C2CCC(=O)NC2=O)C3=O)C1` (stereo partly drawn) [Compound 91, (1S,3R,7S,8S,8aR)-8-(2-((2R,4R)-4-hydroxy-6-oxotetrahydro-2H-pyran-2-yl)ethyl)-3,7-dimethyl-1,2,3,7,8,8a-hexahydronaphthalen-1-yl (2-(3-(2-((2-(2,6-dioxopiperidin-3-yl)-1,3-dioxoisoindolin-4-yl)amino)ethoxy)propoxy)ethyl)carbamate], for which the DC50 is less than 50 nM.

On to `C[C@H]1C=C2C=C[C@H](C)[C@H](CC[C@@H]3C[C@@H](O[Si](C)(C)C(C)(C)C)CC(=O)O3)[C@H]2[C@@H](OC(=O)NCCOCCOCCCNc2cccc3c2C(=O)N(C2CCC(=O)NC2=O)C3=O)C1` (stereo partly drawn) [Compound 92, (1S,3R,7S,8S,8aR)-8-(2-((2R,4R)-4-((tert-butyldimethylsilyl)oxy)-6-oxotetrahydro-2H-pyran-2-yl)ethyl)-3,7-dimethyl-1,2,3,7,8,8a-hexahydronaphthalen-1-yl (2-(2-(3-((2-(2,6-dioxopiperidin-3-yl)-1,3-dioxoisoindolin-4-yl)amino)propoxy)ethoxy)ethyl)carbamate], for which the DC50 was less than 50 nM.

On to `C[C@H]1C=C2C=C[C@H](C)[C@H](CC[C@@H]3C[C@@H](O)CC(=O)O3)[C@H]2[C@@H](OC(=O)NCCOCCOCCCNc2cccc3c2C(=O)N(C2CCC(=O)NC2=O)C3=O)C1` (stereo partly drawn) [Compound 93, (1S,3R,7S,8S,8aR)-8-(2-((2R,4R)-4-hydroxy-6-oxotetrahydro-2H-pyran-2-yl)ethyl)-3,7-dimethyl-1,2,3,7,8,8a-hexahydronaphthalen-1-yl (2-(2-(3-((2-(2,6-dioxopiperidin-3-yl)-1,3-dioxoisoindolin-4-yl)amino)propoxy)ethoxy)ethyl)carbamate], for which the DC50 was less than 50 nM.

Regarding `C[C@H]1C=C2C=C[C@H](C)[C@H](CC[C@@H]3C[C@@H](O[Si](C)(C)C(C)(C)C)CC(=O)O3)[C@H]2[C@@H](OC(=O)NCCCOCCCOCCCNc2cccc3c2C(=O)N(C2CCC(=O)NC2=O)C3=O)C1` (stereo partly drawn) [Compound 94, (1S,3R,7S,8S,8aR)-8-(2-((2R,4R)-4-((tert-butyldimethylsilyl)oxy)-6-oxotetrahydro-2H-pyran-2-yl)ethyl)-3,7-dimethyl-1,2,3,7,8,8a-hexahydronaphthalen-1-yl (3-(3-(3-((2-(2,6-dioxopiperidin-3-yl)-1,3-dioxoisoindolin-4-yl)amino)propoxy)propoxy)propyl)carbamate], the DC50 is less than 50 nM.

With `C[C@H]1C=C2C=C[C@H](C)[C@H](CC[C@@H]3C[C@@H](O)CC(=O)O3)[C@H]2[C@@H](OC(=O)NCCCOCCCOCCCNc2cccc3c2C(=O)N(C2CCC(=O)NC2=O)C3=O)C1` (stereo partly drawn) [Compound 95, (1S,3R,7S,8S,8aR)-8-(2-((2R,4R)-4-hydroxy-6-oxotetrahydro-2H-pyran-2-yl)ethyl)-3,7-dimethyl-1,2,3,7,8,8a-hexahydronaphthalen-1-yl (3-(3-(3-((2-(2,6-dioxopiperidin-3-yl)-1,3-dioxoisoindolin-4-yl)amino)propoxy)propoxy)propyl)carbamate], the DC50 was 50 to 500 nM.

Consider `C[C@H]1C=C2C=C[C@H](C)[C@H](CC[C@@H]3C[C@@H](O[Si](C)(C)C(C)(C)C)CC(=O)O3)[C@H]2[C@@H](OC(=O)NCCCCCCCCNC(=O)COc2cccc3c2C(=O)N(C2CCC(=O)NC2=O)C3=O)C1` (stereo partly drawn) [Compound 96, (1S,3R,7S,8S,8aR)-8-(2-((2R,4R)-4-((tert-butyldimethylsilyl)oxy)-6-oxotetrahydro-2H-pyran-2-yl)ethyl)-3,7-dimethyl-1,2,3,7,8,8a-hexahydronaphthalen-1-yl (8-(2-((2-(2,6-dioxopiperidin-3-yl)-1,3-dioxoisoindolin-4-yl)oxy)acetamido)octyl)carbamate], for which the DC50 is 50 to 500 nM.

With `C[C@H]1C=C2C=C[C@H](C)[C@H](CC[C@@H]3C[C@@H](O)CC(=O)O3)[C@H]2[C@@H](OC(=O)NCCCCCCCCNC(=O)COc2cccc3c2C(=O)N(C2CCC(=O)NC2=O)C3=O)C1` (stereo partly drawn) [Compound 97, (1S,3R,7S,8S,8aR)-8-(2-((2R,4R)-4-hydroxy-6-oxotetrahydro-2H-pyran-2-yl)ethyl)-3,7-dimethyl-1,2,3,7,8,8a-hexahydronaphthalen-1-yl (8-(2-((2-(2,6-dioxopiperidin-3-yl)-1,3-dioxoisoindolin-4-yl)oxy)acetamido)octyl)carbamate], the DC50 is 50 to 500 nM.

In the case of `C[C@H]1C=C2C=C[C@H](C)[C@H](CC[C@@H]3C[C@@H](O[Si](C)(C)C(C)(C)C)CC(=O)O3)[C@H]2[C@@H](OC(=O)NCCOCCOCCOCC(=O)Nc2cccc3c2C(=O)N(C2CCC(=O)NC2=O)C3=O)C1` (stereo partly drawn) [Compound 98, (1S,3R,7S,8S,8aR)-8-(2-((2R,4R)-4-((tert-butyldimethylsilyl)oxy)-6-oxotetrahydro-2H-pyran-2-yl)ethyl)-3,7-dimethyl-1,2,3,7,8,8a-hexahydronaphthalen-1-yl (2-(2-(2-(2-((2-(2,6-dioxopiperidin-3-yl)-1,3-dioxoisoindolin-4-yl)amino)-2-oxoethoxy)ethoxy)ethoxy)ethyl)carbamate], the DC50 is less than 50 nM.

Turning to `C[C@H]1C=C2C=C[C@H](C)[C@H](CC[C@@H]3C[C@@H](O)CC(=O)O3)[C@H]2[C@@H](OC(=O)NCCOCCOCCOCC(=O)Nc2cccc3c2C(=O)N(C2CCC(=O)NC2=O)C3=O)C1` (stereo partly drawn) [Compound 99, (1S,3R,7S,8S,8aR)-8-(2-((2R,4R)-4-hydroxy-6-oxotetrahydro-2H-pyran-2-yl)ethyl)-3,7-dimethyl-1,2,3,7,8,8a-hexahydronaphthalen-1-yl (2-(2-(2-(2-((2-(2,6-dioxopiperidin-3-yl)-1,3-dioxoisoindolin-4-yl)amino)-2-oxoethoxy)ethoxy)ethoxy)ethyl)carbamate], the DC50 was less than 50 nM.

As to `C[C@H]1C=C2C=C[C@H](C)[C@H](CC[C@@H]3C[C@@H](O[Si](C)(C)C(C)(C)C)CC(=O)O3)[C@H]2[C@@H](OC(=O)NCCC(=O)NCCOCCNc2cccc3c2C(=O)N(C2CCC(=O)NC2=O)C3=O)C1` (stereo partly drawn) [Compound 100, (1S,3R,7S,8S,8aR)-8-(2-((2R,4R)-4-((tert-butyldimethylsilyl)oxy)-6-oxotetrahydro-2H-pyran-2-yl)ethyl)-3,7-dimethyl-1,2,3,7,8,8a-hexahydronaphthalen-1-yl (3-((2-(2-((2-(2,6-dioxopiperidin-3-yl)-1,3-dioxoisoindolin-4-yl)amino)ethoxy)ethyl)amino)-3-oxopropyl)carbamate], the DC50 is less than 50 nM.

Regarding `C[C@H]1C=C2C=C[C@H](C)[C@H](CC[C@@H]3C[C@@H](O)CC(=O)O3)[C@H]2[C@@H](OC(=O)NCCC(=O)NCCOCCNc2cccc3c2C(=O)N(C2CCC(=O)NC2=O)C3=O)C1` (stereo partly drawn) [Compound 101, (1S,3R,7S,8S,8aR)-8-(2-((2R,4R)-4-hydroxy-6-oxotetrahydro-2H-pyran-2-yl)ethyl)-3,7-dimethyl-1,2,3,7,8,8a-hexahydronaphthalen-1-yl (3-((2-(2-((2-(2,6-dioxopiperidin-3-yl)-1,3-dioxoisoindolin-4-yl)amino)ethoxy)ethyl)amino)-3-oxopropyl)carbamate], the DC50 was less than 50 nM.

Take `C[C@H]1C=C2C=C[C@H](C)[C@H](CC[C@@H]3C[C@@H](O[Si](C)(C)C(C)(C)C)CC(=O)O3)[C@H]2[C@@H](OC(=O)NCCCn2cnc(CNc3cccc4c3C(=O)N(C3CCC(=O)NC3=O)C4=O)c2)C1` (stereo partly drawn) [Compound 102, (1S,3R,7S,8S,8aR)-8-(2-((2R,4R)-4-((tert-butyldimethylsilyl)oxy)-6-oxotetrahydro-2H-pyran-2-yl)ethyl)-3,7-dimethyl-1,2,3,7,8,8a-hexahydronaphthalen-1-yl (3-(4-(((2-(2,6-dioxopiperidin-3-yl)-1,3-dioxoisoindolin-4-yl)amino)methyl)-1H-imidazol-1-yl)propyl)carbamate]: the 50% degradation concentration (DC50) was less than 50 nM.

In general, DC50 refers to the concentration giving 50% degradation.
